Data taken from patent publication US20150011751A1, “NOVEL TRIAZINE DERIVATIVE” (CARNA BIOSCIENCES, INC., priority 2012, published 2015).

Target: Dephosphorylated BTK (Homo sapiens, UniProt Q06187)
Experiment: Test of activity inhibition against dephosphorylated BTK (mobility shift assay)
Protocol: Kinase activity was measured by a mobility shift assay (MSA) method using QuickScout Screening Assist (trademark) MSA (commercially available kit, manufactured by Carna Biosciences, Inc.). FITC-labeled SRCtide peptide supplied with the kit was used as a substrate of a kinase reaction.
IC50 value was calculated by regression analysis of the inhibition ratio and the test compound concentration (logarithm).
Dephosphorylated BTK was obtained by adding a A protein phosphatase (Code No. P0753S, manufactured by New England BioLabs Inc.) and MnCl2 to a biotinylated BTK protein BTN-BTK (manufactured by Carna Biosciences, Inc.) enzyme solution so as to adjust the concentrations to 10 U/μg and 2 mM, respectively, reacting the mixture at 4° C. overnight, removing the A protein phosphatase through anti-[sequence]-tag antibody agarose gel chromatography, and performing buffer exchange using 10DG Desalting Column.

Dephosphorylated BTK, sequence (Q06187 whole entry): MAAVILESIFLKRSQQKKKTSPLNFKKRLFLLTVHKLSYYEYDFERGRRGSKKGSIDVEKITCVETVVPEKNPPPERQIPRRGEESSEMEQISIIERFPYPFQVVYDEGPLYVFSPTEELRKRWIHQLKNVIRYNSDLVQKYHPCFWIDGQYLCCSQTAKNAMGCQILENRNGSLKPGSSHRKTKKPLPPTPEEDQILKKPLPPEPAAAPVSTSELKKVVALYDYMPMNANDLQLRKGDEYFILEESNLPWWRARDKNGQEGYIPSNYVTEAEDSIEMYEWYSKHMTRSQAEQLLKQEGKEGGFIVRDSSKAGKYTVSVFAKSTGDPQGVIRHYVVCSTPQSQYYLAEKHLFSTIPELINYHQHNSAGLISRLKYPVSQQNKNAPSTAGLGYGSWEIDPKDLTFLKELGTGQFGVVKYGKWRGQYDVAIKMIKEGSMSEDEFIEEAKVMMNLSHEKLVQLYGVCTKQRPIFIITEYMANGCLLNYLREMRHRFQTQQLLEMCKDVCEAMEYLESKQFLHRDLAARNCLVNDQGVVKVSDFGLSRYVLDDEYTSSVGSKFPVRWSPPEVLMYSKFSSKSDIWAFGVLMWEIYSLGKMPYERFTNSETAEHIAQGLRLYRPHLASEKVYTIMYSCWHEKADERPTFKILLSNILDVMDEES

SMILES	IC50 [nM]
Cc1c(NC(=O)c2ccc(C(C)(C)C)cc2)cccc1-c1ncnc(Nc2ccc(C(=O)NCCN(C)C)cc2)n1 [Example 17, 4-(tert-Butyl)-N-(3-{4-[(4-{[2-(dimethylami-no)ethyl]carbamoyl}phe-nyl)amino]-1,3,5-tri-azin-2-yl)-2-methyl-phenyl)benzamide]	5.1
Cc1c(NC(=O)c2ccc(C(C)(C)C)cc2)cccc1-c1ncnc(Nc2ccc(C(=O)NC(CO)CO)cc2)n1 [Example 19, 4-(tert-Butyl)-N-{3-[4-({4-[(1,3-dihydroxypropan-2-yl)carbamoyl]phenyl}amino)-1,3,5-triazin-2-yl]-2-methyl-phenyl}benzamide]	6.1
Cc1c(NC(=O)c2ccc(C(C)(C)C)cc2)cccc1-c1ncnc(Nc2ccc(N3CCOCC3)cc2)n1 [Example 24, 4-(tert-Butyl)-N-(2-meth-yl-3-{4-[(4-morpho-linophenyl)amino]-1,3,5-triazin-2-yl}phenyl) benzamide]	3.4
Cc1c(NC(=O)c2ccc(C(C)(C)C)cc2)cccc1-c1ncnc(Nc2ccc(CN3CCOCC3)cc2)n1 [Example 25, 4-(tert-Butyl)-N-[2-meth-yl-3-(4-{[4-(morpho-linomethyl)phenyl]ami-no}-1,3,5-triazin-2-yl)phenyl]benzamide]	3.5
COCCOc1ccc(Nc2nc(N)nc(-c3cccc(NC(=O)c4ccc(C(C)(C)C)cc4)c3C)n2)cc1 [Example 34, N-[3-(4-Amino-6-{[4-(2-methoxyethoxy)phenyl]amino}-1,3,5-triazin-2-yl)-2-methylphenyl]-4-(tert-butyl)benz-amide]	4
Cc1c(NC(=O)c2ccc(C(C)(C)C)cc2)cccc1-c1ncnc(Nc2ccc(C3C(=O)N(C)CCN3C)cc2)n1 (stereo not shown) [Example 37, 4-(tert-Butyl)-N-[3-(4-{[4-(1,4-dimethyl-3-oxopiperazin-2-yl)phe-nyl]amino}-1,3,5-tri-azin-2-yl)-2-methyl-phenyl]benzamide]	2.7
Cc1c(NC(=O)c2ccc(C(C)(C)C)cc2)cccc1-c1nc(N)nc(Nc2ccc(CN3CCOCC3)cc2)n1 [Example 38, N-[3-(4-Amino-6-{[4-(mor-pholinomethyl)phe-nyl]amino}-1,3,5-triazin-2-yl)-2-methylphe-nyl]-4-(tert-butyl)benz-amide]	1.2
Cc1c(-c2nc(N)nc(Nc3ccc(C(=O)N4CCOCC4)cc3)n2)cccc1N1Cc2cc(C(C)(C)C)sc2C1=O [Example 42, 5-[3-(4-Amino-6-{[4-(morpholine-4-carbonyl)phenyl]amino}-1,3,5-triazin-2-yl)-2-methylphenyl]-2-(tert-butyl)-4H-thieno[2,3-c]pyrrol-6(5H)-one]	6.5
Nc1nc(Nc2ccc(CN3CCOCC3)cc2)nc(-c2cccc(N3CCc4cc(C5CC5)cc(F)c4C3=O)c2CO)n1 [Example 45, 2-[3-(4-Amino-6-{[4-(morpho-linomethyl)phe-nyl]amino}-1,3,5-tri-azin-2-yl)-2-(hydroxymeth-yl)phenyl]-6-cyclopro-pyl-8-fluoro-3,4-di-hydroisoquinolin-1(2H)-one]	1.7
Nc1nc(Nc2ccc(N3CCOCC3)nc2)nc(-c2cccc(N3CCc4cc(C5CC5)cc(F)c4C3=O)c2CO)n1 [Example 46, 2-(3-{4-Amino-6-[(6-morpho-linopyridin-3-yl)amino]-1,3,5-triazin-2-yl}-2-(hydroxymeth-yl)phenyl)-6-cyclopro-pyl-8-fluoro-3,4-dihy-droisoquinolin-1(2H)-one]	5.2
CN1CCN(C)C(c2ccc(Nc3nc(N)nc(-c4cccc(N5CCc6cc(C7CC7)cc(F)c6C5=O)c4CO)n3)cc2)C1=O (stereo not shown) [Example 47, 2-[3-(5-Amino-6-{[4-(1,4-dimethyl-3-oxopipera-zin-2-yl)phenyl]ami-no}-1,3,5-triazin-2-yl)-2-(hydroxymethyl)phenyl]-6-cyclopropyl-8-fluoro-3,4-dihydro-isoquinolin-1(2H)-one]	1.6
COCCOc1ccc(Nc2nc(N)nc(-c3cccc(N4CCc5cc(C6CC6)cc(F)c5C4=O)c3CO)n2)cc1OCCOC [Example 48, 2-[3-(4-Amino-6-{[3,4-bis(2-methoxyethoxy)phenyl]amino}-1,3,5-tri-azin-2-yl}-2-(hydroxy-methyl)phenyl]-6-cyclo-propyl-8-fluoro-3,4-dihydroisoquinolin-1(2H)-one]	3.4
Nc1nc(Nc2ccc(Cn3cncn3)cc2)nc(-c2cccc(N3CCc4cc(C5CC5)cc(F)c4C3=O)c2CO)n1 [Example 49, 2-{3-[4-({4-[(1H-1,2,4-Triazol-1-yl)methyl]phenyl}amino)-6-amino-1,3,5-triazin-2-yl]-2-(hydroxymethyl)phe-nyl}-6-cyclopropyl-8-fluoro-3,4-dihydroiso-quinolin-1(2H)-one]	1.1
Nc1nc(Nc2ccc(Cn3cccn3)cc2)nc(-c2cccc(N3CCc4cc(C5CC5)cc(F)c4C3=O)c2CO)n1 [Example 50, 2-{3-[4-({4-[(1H-Pyra-zol-1-yl)methyl]phenyl}amino)-6-amino-1,3,5-triazin-2-yl]-2-(hy-droxymethyl)phenyl}-6-cyclopropyl-8-fluoro-3,4-dihydroisoquino-lin-1(2H)-one]	1

The remaining lines, values ahead:

IC50 [nM]	SMILES
2	Nc1nc(Nc2cccc(Cn3cncn3)c2)nc(-c2cccc(N3CCc4cc(C5CC5)cc(F)c4C3=O)c2CO)n1 [Example 51, 2-{3-[4-({3-[(1H-1,2,4-Triazol-1-yl)methyl]phenyl}amino)-6-amino-1,3,5-triazin-2-yl]-2-(hydroxymethyl)phe-nyl}-6-cyclopropyl-8-fluoro-3,4-dihydroiso-quinolin-1(2H)-one]
1.6	Nc1nc(Nc2ccc(N3CCC(O)CC3)cc2)nc(-c2cccc(N3CCc4cc(C5CC5)cc(F)c4C3=O)c2CO)n1 [Example 52, 2-[3-(4-Amino-6-{[4-(4-hydroxypiperidin-1-yl)phenyl]amino}-1,3,5-triazin-2-yl)-2-(hy-droxymethyl)phenyl]-6-cyclopropyl-8-fluoro-3,4-dihydroisoquinolin-1(2H)-one]
1.8	Nc1nc(Nc2ccc(N3CCCC(O)C3)cc2)nc(-c2cccc(N3CCc4cc(C5CC5)cc(F)c4C3=O)c2CO)n1 (stereo not shown) [Example 53, 2-[3-(4-Amino-6-{[4-(3-hydroxypiperidin-1-yl)phenyl]amino}-1,3,5-triazin-2-yl)-2-(hy-droxymethyl)phenyl]-6-cyclopropyl-8-fluoro-3,4-dihydroisoquinolin-1(2H)-one]
0.6	CC(C)(C)c1ccc(C(=O)Nc2cccc(-c3nc(N)nc(Nc4ccc(O)cc4)n3)c2CO)cc1 [Example 65, N-(3-{4-Amino-6-[(4-hy-droxyphenyl)amino]-1,3,5-triazin-2-yl}-2-(hydroxymethyl)phenyl)-4-(tert-butyl)benza-mide]
3.2	Cc1c(NC(=O)c2cc3c(s2)CCCC3)cccc1-c1nc(N)nc(Nc2ccc(C(=O)N3CCOCC3)cc2)n1 [Example 66, N-[3-(4-Amino-6-{[4-(morpho-line-4-carbonyl)phenyl]amino}-1,3,5-triazin-2-yl)-2-methyl-phenyl]-4,5,6,7-tetra-hydrobenzo[b]thiophene-2-carboxamide]
1.3	CC(C)(C)c1cc2c(s1)C(=O)N(c1cccc(-c3nc(N)nc(Nc4ccc(N5CCOCC5)cc4)n3)c1CO)C2 [Example 73, 5-(3-{4-Amino-6-[(4-morpho-linophenyl)amino]-1,3,5-triazin-2-yl}-2-(hydroxymethyl)phe-nyl)-2-(tert-butyl)-4H-thieno[2,3-c]pyrrol-6(5H)-one]
0.7	COCCOc1ccc(Nc2nc(N)nc(-c3cccc(NC(=O)c4ccc(C(C)(C)C)cc4)c3CO)n2)cc1 [Example 74, N-[3-(4-Amino-6-{[4-(2-methoxyethoxy)phenyl]amino}-1,3,5-triazin-2-yl)-2-(hydroxymeth-yl)phenyl]-4-(tert-butyl) benzamide]
3.4	CC(C)(C)c1cc2c(s1)C(=O)N(c1cccc(-c3nc(N)nc(Nc4ccc(CN5CCOCC5)cc4)n3)c1CO)C2 [Example 77, 5-[3-(4-Amino-6-{[4-(morpho-linomethyl)phe-nyl]amino}-1,3,5-triazin-2-yl)-2-(hydroxymeth-yl)phenyl]-2-(tert-butyl)-4H-thieno[2,3-c]pyrrol-6(5H)-one]
1.2	CC(C)(C)c1ccc(C(=O)Nc2cccc(-c3nc(N)nc(Nc4ccc(OCCN5CCOCC5)cc4)n3)c2CO)cc1 [Example 78, N-[3-(4-Amino-6-{[4-(2-morpholinoethoxy)phe-nyl]amino}-1,3,5-tri-azin-2-yl)-2-(hydroxy-methyl)phenyl]-4-(tert-butyl)benzamide]
0.6	CC(C)(C)c1ccc(C(=O)Nc2cccc(-c3nc(N)nc(Nc4ccc(CN5CCOCC5)cc4)n3)c2CO)cc1 [Example 79, N-[3-(4-Amino-6-{[4-(morpho-linomethyl)phe-nyl]amino}-1,3,5-triazin-2-yl)-2-(hydroxymeth-yl)phenyl]-4-(tert-butyl)benzamide]
2.1	Cc1c(NC(=O)c2ccc(C(C)(C)C)cc2)cccc1-c1nc(N)nc(Nc2ccc(N3CCC(N4CCOCC4)CC3)cc2)n1 [Example 80, N-[3-(4-Amino-6-{[4-(4-morpholinopiperidin-1-yl)phenyl]amino}-1,3,5-triazin-2-yl)-2-methylphenyl]-4-(tert-butyl)benzamide]
2.2	Cc1c(NC(=O)c2ccc(C(C)(C)C)cc2)cccc1-c1nc(N)nc(Nc2ccc(N3CCCC(O)C3)cc2)n1 (stereo not shown) [Example 81, N-[3-(4-Amino-6-{[4-(3-hydroxypiperidin-1-yl)phenyl]amino}-1,3,5-triazin-2-yl)-2-meth-ylphenyl]-4-(tert-bu-tyl)benzamide]
1.8	CN1CCN(C)C(c2ccc(Nc3nc(N)nc(-c4cccc(N5Cc6cc(C(C)(C)C)sc6C5=O)c4CO)n3)cc2)C1=O (stereo not shown) [Example 83, 5-[3-(4-Amino-6-{[4-(1,4-dimethyl-3-oxo-piperazin-2-yl)phenyl]ami-no}-1,3,5-triazin-2-yl)-2-(hydroxymethyl)phenyl]-2-(tert-butyl)-4H-thieno[2,3-c]pyr-rol-6(5H)-one]
5.8	Cc1c(NC(=O)c2ccc(C(C)(C)C)cc2)cccc1-c1nc(N)nc(Nc2ccc(N3C[C@@H](C)O[C@@H](C)C3)cc2)n1 [Example 85, N-[3-(4-Amino-6-{[4-((2S, 6R)-2,6-dimethyl-morpholino)phenyl]ami-no}-1,3,5-triazin-2-yl)-2-methylphenyl]-4-(tert-butyl)benzamide]
